Data from US10251395B2, “Substituted furano-/thienocycloalkylamino-2-pyrimidine derivatives and use thereof for controlling undesired plant growth” (Bayer CropScience Aktiengesellschaft, priority 2015, dated 2019).

Columns and labels:
[1] = logP (HCOOH); assay type: physicochemical; conditions: HCOOH
Description: Table 2 (physicochemical characterization of selected synthesis examples)

[2] = test system: Amaranthus retroflexus; assay: Pre-emergence herbicidal effect; assay type: in vivo; conditions: scored visually after 3 weeks
How it was run: (§1)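 After seeds are covered with sandy loam soil, the formulated compound is sprayed onto the soil surface as an aqueous suspension or emulsion containing 0.2% wetting agent. Three weeks later in the greenhouse, damage is rated by eye from 0% (like controls) to 100% (dead).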

[3] = test system: Matricaria inodora; assay: Pre-emergence herbicidal effect; assay type: in vivo; conditions: scored visually after 3 weeks
How it was run: as §1

[4] = test system: Polygonum convolvulus; assay: Pre-emergence herbicidal effect; assay type: in vivo; conditions: scored visually after 3 weeks
How it was run: as §1

[5] = test system: Echinochloa crus-galli; assay: Pre-emergence herbicidal effect; assay type: in vivo; conditions: scored visually after 3 weeks
How it was run: as §1

[6] = test system: Stellaria media; assay: Pre-emergence herbicidal effect; assay type: in vivo; conditions: scored visually after 3 weeks
How it was run: as §1

[7] = test system: Setaria viridis; assay: Pre-emergence herbicidal effect; assay type: in vivo; conditions: scored visually after 3 weeks
How it was run: as §1

[8] = test system: Ipomoea purpurea; assay: Pre-emergence herbicidal effect; assay type: in vivo; conditions: Dosage 320 g/ha, scored visually after 3 weeks
How it was run: as §1

[9] = test system: Viola tricolor; assay: Pre-emergence herbicidal effect; assay type: in vivo; conditions: scored visually after 3 weeks
How it was run: as §1

[10] = test system: Alopecurus myosuroides; assay: Pre-emergence herbicidal effect; assay type: in vivo; conditions: scored visually after 3 weeks
How it was run: as §1

[11] = test system: Abutilon theophrasti; assay: Pre-emergence herbicidal effect; assay type: in vivo; conditions: Dosage 320 g/ha, scored visually after 3 weeks
How it was run: as §1

[12] = test system: Lolium multiflorum; assay: Pre-emergence herbicidal effect; assay type: in vivo; conditions: scored visually after 3 weeks
How it was run: as §1

[13] = test system: Veronica persica; assay: Pre-emergence herbicidal effect; assay type: in vivo; conditions: scored visually after 3 weeks
How it was run: as §1

[14] = test system: Amaranthus retroflexus; assay: Post-emergence herbicidal effect; assay type: in vivo; conditions: assessed visually after about 3 weeks vs untreated controls
How it was run: (§2)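 Action, expressed in percent from 0 (like controls) to 100 (plants died), is read by eye about 3 weeks after foliar application. Applications use formulated product in water at 600–800 L/ha on one-leaf-stage plants sown in sandy loam.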

[15] = test system: Polygonum convolvulus; assay: Post-emergence herbicidal effect; assay type: in vivo; conditions: assessed visually after about 3 weeks vs untreated controls
How it was run: as §2

[16] = test system: Echinochloa crus-galli; assay: Post-emergence herbicidal effect; assay type: in vivo; conditions: assessed visually after about 3 weeks vs untreated controls
How it was run: as §2

[17] = test system: Stellaria media; assay: Post-emergence herbicidal effect; assay type: in vivo; conditions: assessed visually after about 3 weeks vs untreated controls
How it was run: as §2

[18] = test system: Avena fatua; assay: Post-emergence herbicidal effect; assay type: in vivo; conditions: 320 g/ha, assessed visually after about 3 weeks vs untreated controls
How it was run: as §2

[19] = test system: Setaria viridis; assay: Post-emergence herbicidal effect; assay type: in vivo; conditions: assessed visually after about 3 weeks vs untreated controls
How it was run: as §2

[20] = test system: Ipomoea purpurea; assay: Post-emergence herbicidal effect; assay type: in vivo; conditions: 320 g/ha, assessed visually after about 3 weeks vs untreated controls
How it was run: as §2

[21] = test system: Viola tricolor; assay: Post-emergence herbicidal effect; assay type: in vivo; conditions: assessed visually after about 3 weeks vs untreated controls
How it was run: as §2

[22] = test system: Alopecurus myosuroides; assay: Post-emergence herbicidal effect; assay type: in vivo; conditions: assessed visually after about 3 weeks vs untreated controls
How it was run: as §2

[23] = test system: Abutilon theophrasti; assay: Post-emergence herbicidal effect; assay type: in vivo; conditions: 320 g/ha, assessed visually after about 3 weeks vs untreated controls
How it was run: as §2

[24] = test system: Lolium multiflorum; assay: Post-emergence herbicidal effect; assay type: in vivo; conditions: assessed visually after about 3 weeks vs untreated controls
How it was run: as §2

[25] = test system: Veronica persica; assay: Post-emergence herbicidal effect; assay type: in vivo; conditions: assessed visually after about 3 weeks vs untreated controls
How it was run: as §2

Nc1nc(N[C@@H]2CCCc3sccc32)ncc1C(F)(F)F [compound 46]
logP (HCOOH) [1]: oily; logP (HCOOH): 1.91; 1H NMR (CDCl3, 400 MHZ, δ in ppm): 1.80-1.95 (m,
AMARE pre-emergence efficacy (herbicidal activity) ([2]; Dosage 80 g/ha): 100%
AMARE pre-emergence efficacy (herbicidal activity) ([2]; Dosage 320 g/ha): 100%
MATIN pre-emergence efficacy (herbicidal activity) ([3]; Dosage 80 g/ha): 100%
MATIN pre-emergence efficacy (herbicidal activity) ([3]; Dosage 320 g/ha): 100%
POLCO pre-emergence efficacy (herbicidal activity) ([4]; Dosage 80 g/ha): 90%
POLCO pre-emergence efficacy (herbicidal activity) ([4]; Dosage 320 g/ha): 100%
ECHCG pre-emergence efficacy (herbicidal activity) ([5]; Dosage 80 g/ha): 100%
ECHCG pre-emergence efficacy (herbicidal activity) ([5]; Dosage 320 g/ha): 100%
STEME pre-emergence efficacy (herbicidal activity) ([6]; Dosage 80 g/ha): 100%
STEME pre-emergence efficacy (herbicidal activity) ([6]; Dosage 320 g/ha): 100%
SETVI pre-emergence efficacy (herbicidal activity) ([7]; Dosage 80 g/ha): 100%
SETVI pre-emergence efficacy (herbicidal activity) ([7]; Dosage 320 g/ha): 100%
PHBPU pre-emergence efficacy (herbicidal activity) [8]: 100%
VIOTR pre-emergence efficacy (herbicidal activity) ([9]; Dosage 80 g/ha): 100%
VIOTR pre-emergence efficacy (herbicidal activity) ([9]; Dosage 320 g/ha): 100%
ALOMY pre-emergence efficacy (herbicidal activity) ([10]; Dosage 80 g/ha): 100%
ALOMY pre-emergence efficacy (herbicidal activity) ([10]; Dosage 320 g/ha): 100%
ABUTH pre-emergence efficacy (herbicidal activity) [11]: 80%
LOLMU pre-emergence efficacy (herbicidal activity) ([12]; Dosage 80 g/ha): 80%
LOLMU pre-emergence efficacy (herbicidal activity) ([12]; Dosage 320 g/ha): 100%
VERPE pre-emergence efficacy (herbicidal activity) ([13]; Dosage 80 g/ha): 100%
VERPE pre-emergence efficacy (herbicidal activity) ([13]; Dosage 320 g/ha): 100%
post-emergence efficacy AMARE ([14]; 80 g/ha): 100%
post-emergence efficacy AMARE ([14]; 320 g/ha): 100%
post-emergence efficacy POLCO ([15]; 80 g/ha): 90%
post-emergence efficacy POLCO ([15]; 320 g/ha): 90%
post-emergence efficacy ECHCG ([16]; 80 g/ha): 100%
post-emergence efficacy ECHCG ([16]; 320 g/ha): 100%
post-emergence efficacy STEME ([17]; 80 g/ha): 100%
post-emergence efficacy STEME ([17]; 320 g/ha): 100%
post-emergence efficacy AVEFA [18]: 80%
post-emergence efficacy SETVI ([19]; 80 g/ha): 90%
post-emergence efficacy SETVI ([19]; 320 g/ha): 90%
post-emergence efficacy PHBPU [20]: 80%
post-emergence efficacy VIOTR ([21]; 80 g/ha): 80%
post-emergence efficacy VIOTR ([21]; 320 g/ha): 100%
post-emergence efficacy ALOMY ([22]; 80 g/ha): 90%
post-emergence efficacy ALOMY ([22]; 320 g/ha): 100%
post-emergence efficacy ABUTH [23]: 40%
post-emergence efficacy LOLMU ([24]; 80 g/ha): 80%
post-emergence efficacy LOLMU ([24]; 320 g/ha): 100%
post-emergence efficacy VERPE ([25]; 80 g/ha): 80%
post-emergence efficacy VERPE ([25]; 320 g/ha): 100%
